Values quoted from earlier work, collected in patent publication US20250195564A1, “IRON SUPPLEMENT COMPOSITIONS AND METHODS OF USE THEREOF” (ThermoLife International, LLC, priority 2021, published 2025).

Conditions: iron supplementation; without supplementation mean 36±11 days

O=S(=O)([O-])[O-].[Fe+2] [iron sulfate]
time of hemoglobin recovery after blood donation: 32 days
